Data: patent US12365696B2, “Small-molecule focal adhesion kinase (FAK) inhibitors” (DANA-FARBER CANCER INSTITUTE, INC., priority 2019, dated 2025)

Legend:
Assay in all cases: KINOMEscan
Format in all cases: binding
[1] = molecular target: ABL1(F317L)-phosphorylated (Homo sapiens (Human), UniProt P00519, F317L); conditions: 10000 nM, read-out: Percent Control
[2] = molecular target: ABL1(H396P)-nonphosphorylated (Homo sapiens (Human), UniProt P00519, H396P); conditions: 10000 nM, read-out: Percent Control
BMPR1A = BMPR1A (Homo sapiens (Human), UniProt P36894); conditions: 10000 nM, read-out: Percent Control
BMX = BMX (Homo sapiens (Human), UniProt P51813); conditions: 10000 nM, read-out: Percent Control
CDC2L2 = CDC2L2 (Homo sapiens (Human), UniProt Q9UQ88); conditions: CDC2L2, 10000 nM; read-out: Percent Control
CSF1R = CSF1R (Homo sapiens (Human), UniProt P07333); conditions: 10000 nM, read-out: Percent Control
EGFR(T790M) = EGFR(T790M) (Homo sapiens (Human), UniProt P00533, T790M); conditions: 10000 nM, read-out: Percent Control
ERBB2 = ERBB2 (Homo sapiens (Human), UniProt P04626); conditions: ERBB2, 10000 nM; read-out: Percent Control
ERBB4 = ERBB4 (Homo sapiens (Human), UniProt Q15303); conditions: ERBB4, 10000 nM; read-out: Percent Control
ERK2 = ERK2 (Homo sapiens (Human), UniProt P28482); conditions: ERK2, 10000 nM; read-out: Percent Control
FLT1 = FLT1 (Homo sapiens (Human), UniProt P17948); conditions: FLT1, 10000 nM; read-out: Percent Control
GRK2 = GRK2 (Homo sapiens (Human), UniProt P25098); conditions: GRK2, 10000 nM; read-out: Percent Control
HIPK1 = HIPK1 (Homo sapiens (Human), UniProt Q86Z02); conditions: HIPK1, 10000 nM; read-out: Percent Control
HIPK3 = HIPK3 (Homo sapiens (Human), UniProt Q9H422); conditions: HIPK3, 10000 nM; read-out: Percent Control
IGF1R = IGF1R (Homo sapiens (Human), UniProt P08069); conditions: 10000 nM, read-out: Percent Control
LZK = LZK (Homo sapiens (Human), UniProt O43283); conditions: 10000 nM, read-out: Percent Control
MAP4K3 = MAP4K3 (Homo sapiens (Human), UniProt Q8IVH8); conditions: MAP4K3, 10000 nM; read-out: Percent Control
MAPKAPK2 = MAPKAPK2 (Homo sapiens (Human), UniProt P49137); conditions: MAPKAPK2, 10000 nM; read-out: Percent Control
Sequence of MAPKAPK2 (P49137 whole entry): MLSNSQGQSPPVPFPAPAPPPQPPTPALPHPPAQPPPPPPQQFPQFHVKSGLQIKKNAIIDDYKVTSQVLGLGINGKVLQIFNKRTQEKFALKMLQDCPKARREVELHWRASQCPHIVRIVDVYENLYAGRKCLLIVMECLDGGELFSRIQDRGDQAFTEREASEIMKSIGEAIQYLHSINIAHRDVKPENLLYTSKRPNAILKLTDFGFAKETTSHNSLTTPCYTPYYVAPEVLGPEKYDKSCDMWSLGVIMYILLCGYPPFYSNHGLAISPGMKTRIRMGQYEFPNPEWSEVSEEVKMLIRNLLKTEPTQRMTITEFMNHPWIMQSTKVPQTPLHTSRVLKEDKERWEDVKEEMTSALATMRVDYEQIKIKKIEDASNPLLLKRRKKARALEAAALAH

MEK6 = MEK6 (Homo sapiens (Human), UniProt P52564); conditions: MEK6, 10000 nM; read-out: Percent Control
MET(M1250T) = MET(M1250T) (Homo sapiens (Human), UniProt P08581, M1250T); conditions: 10000 nM, read-out: Percent Control
MST1 = MST1 (Homo sapiens (Human), UniProt Q13043); conditions: MST1, 10000 nM; read-out: Percent Control
MYLK = MYLK (Homo sapiens (Human), UniProt Q15746); conditions: 10000 nM, read-out: Percent Control
MYLK4 = MYLK4 (Homo sapiens (Human), UniProt Q86YV6); conditions: MYLK4, 10000 nM; read-out: Percent Control
Sequence of MYLK4 (Q86YV6 whole entry): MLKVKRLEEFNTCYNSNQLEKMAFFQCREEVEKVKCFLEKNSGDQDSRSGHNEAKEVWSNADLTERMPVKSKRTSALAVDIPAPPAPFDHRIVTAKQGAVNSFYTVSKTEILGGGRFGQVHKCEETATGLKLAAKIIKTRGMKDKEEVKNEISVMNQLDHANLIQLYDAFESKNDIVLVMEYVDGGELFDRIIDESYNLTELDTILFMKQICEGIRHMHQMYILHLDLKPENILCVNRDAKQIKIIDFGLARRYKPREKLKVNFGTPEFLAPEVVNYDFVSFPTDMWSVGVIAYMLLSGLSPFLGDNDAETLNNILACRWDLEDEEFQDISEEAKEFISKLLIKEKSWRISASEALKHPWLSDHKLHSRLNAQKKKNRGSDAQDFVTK

MYO3B = MYO3B (Homo sapiens (Human), UniProt Q8WXR4); conditions: 10000 nM, read-out: Percent Control
Sequence of MYO3B (Q8WXR4 whole entry): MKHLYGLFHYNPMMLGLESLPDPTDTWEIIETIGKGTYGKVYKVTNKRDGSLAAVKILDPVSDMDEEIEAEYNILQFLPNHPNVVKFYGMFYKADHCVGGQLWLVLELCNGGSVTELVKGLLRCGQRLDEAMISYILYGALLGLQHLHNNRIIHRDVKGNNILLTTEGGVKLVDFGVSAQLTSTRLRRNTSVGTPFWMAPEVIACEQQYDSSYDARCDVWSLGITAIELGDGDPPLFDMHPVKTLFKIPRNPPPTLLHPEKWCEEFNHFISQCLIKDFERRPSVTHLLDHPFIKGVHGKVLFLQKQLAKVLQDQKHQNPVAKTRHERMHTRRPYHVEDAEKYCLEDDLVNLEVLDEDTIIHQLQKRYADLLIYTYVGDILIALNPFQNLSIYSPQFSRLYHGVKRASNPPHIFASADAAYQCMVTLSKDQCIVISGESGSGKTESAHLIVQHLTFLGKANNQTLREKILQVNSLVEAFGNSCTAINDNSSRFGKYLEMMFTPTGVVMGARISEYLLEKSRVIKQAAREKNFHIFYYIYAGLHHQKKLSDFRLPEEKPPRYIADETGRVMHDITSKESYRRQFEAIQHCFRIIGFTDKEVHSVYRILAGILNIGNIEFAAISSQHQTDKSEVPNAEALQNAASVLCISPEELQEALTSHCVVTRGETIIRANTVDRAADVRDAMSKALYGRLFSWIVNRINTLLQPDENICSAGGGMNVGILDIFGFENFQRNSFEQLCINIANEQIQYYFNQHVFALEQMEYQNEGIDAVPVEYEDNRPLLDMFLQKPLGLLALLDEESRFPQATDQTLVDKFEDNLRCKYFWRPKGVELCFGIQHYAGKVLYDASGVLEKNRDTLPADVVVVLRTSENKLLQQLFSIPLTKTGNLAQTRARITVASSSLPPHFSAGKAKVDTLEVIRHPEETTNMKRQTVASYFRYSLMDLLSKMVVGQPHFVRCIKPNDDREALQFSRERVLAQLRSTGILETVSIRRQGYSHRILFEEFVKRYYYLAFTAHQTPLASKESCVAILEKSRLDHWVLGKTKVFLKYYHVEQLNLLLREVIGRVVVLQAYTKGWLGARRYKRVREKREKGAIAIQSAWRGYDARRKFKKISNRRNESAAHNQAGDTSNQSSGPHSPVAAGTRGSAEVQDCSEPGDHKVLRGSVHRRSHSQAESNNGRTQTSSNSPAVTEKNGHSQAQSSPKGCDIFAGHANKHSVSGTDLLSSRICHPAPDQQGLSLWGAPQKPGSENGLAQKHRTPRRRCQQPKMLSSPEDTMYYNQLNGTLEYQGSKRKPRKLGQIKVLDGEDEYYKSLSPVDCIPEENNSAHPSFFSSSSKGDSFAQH

p38-gamma = p38-gamma (Homo sapiens (Human), UniProt P53778); conditions: 10000 nM, read-out: Percent Control
Sequence of p38-gamma (P53778 whole entry): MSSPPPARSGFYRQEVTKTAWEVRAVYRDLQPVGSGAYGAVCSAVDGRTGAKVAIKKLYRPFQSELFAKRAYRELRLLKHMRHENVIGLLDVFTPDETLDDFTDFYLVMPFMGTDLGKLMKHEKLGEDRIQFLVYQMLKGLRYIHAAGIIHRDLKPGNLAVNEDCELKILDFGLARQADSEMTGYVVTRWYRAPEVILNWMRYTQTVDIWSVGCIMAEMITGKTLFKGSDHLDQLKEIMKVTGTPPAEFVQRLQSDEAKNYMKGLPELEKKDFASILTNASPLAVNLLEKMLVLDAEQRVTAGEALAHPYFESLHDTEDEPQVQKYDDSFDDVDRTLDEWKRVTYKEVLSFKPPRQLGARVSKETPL

PFPK5(P. falciparum) = PFPK5(P. falciparum) (Plasmodium falciparum (isolate 3D7), UniProt P61075); conditions: 10000 nM, read-out: Percent Control
PFTK1 = PFTK1 (Homo sapiens (Human), UniProt O94921); conditions: PFTK1, 10000 nM; read-out: Percent Control
Sequence of PFTK1 (O94921 whole entry): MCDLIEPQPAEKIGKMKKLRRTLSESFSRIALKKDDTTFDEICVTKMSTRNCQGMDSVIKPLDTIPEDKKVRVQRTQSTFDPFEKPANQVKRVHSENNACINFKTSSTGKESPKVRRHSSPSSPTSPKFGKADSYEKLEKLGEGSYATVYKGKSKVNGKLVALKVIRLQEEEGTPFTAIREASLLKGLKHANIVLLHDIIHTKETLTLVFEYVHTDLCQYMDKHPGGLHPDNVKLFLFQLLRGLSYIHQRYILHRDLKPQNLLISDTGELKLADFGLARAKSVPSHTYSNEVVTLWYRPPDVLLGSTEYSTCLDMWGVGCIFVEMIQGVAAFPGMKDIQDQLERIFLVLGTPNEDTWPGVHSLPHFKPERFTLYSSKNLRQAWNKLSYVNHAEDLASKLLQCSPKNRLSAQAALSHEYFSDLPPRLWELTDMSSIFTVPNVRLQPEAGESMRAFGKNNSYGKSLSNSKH

PHKG1 = PHKG1 (Homo sapiens (Human), UniProt Q16816); conditions: PHKG1, 10000 nM; read-out: Percent Control
PIK3CA(I800L) = PIK3CA(I800L) (Homo sapiens (Human), UniProt P42336, I800L); conditions: 10000 nM, read-out: Percent Control
Sequence of PIK3CA(I800L) (P42336 whole entry I800L): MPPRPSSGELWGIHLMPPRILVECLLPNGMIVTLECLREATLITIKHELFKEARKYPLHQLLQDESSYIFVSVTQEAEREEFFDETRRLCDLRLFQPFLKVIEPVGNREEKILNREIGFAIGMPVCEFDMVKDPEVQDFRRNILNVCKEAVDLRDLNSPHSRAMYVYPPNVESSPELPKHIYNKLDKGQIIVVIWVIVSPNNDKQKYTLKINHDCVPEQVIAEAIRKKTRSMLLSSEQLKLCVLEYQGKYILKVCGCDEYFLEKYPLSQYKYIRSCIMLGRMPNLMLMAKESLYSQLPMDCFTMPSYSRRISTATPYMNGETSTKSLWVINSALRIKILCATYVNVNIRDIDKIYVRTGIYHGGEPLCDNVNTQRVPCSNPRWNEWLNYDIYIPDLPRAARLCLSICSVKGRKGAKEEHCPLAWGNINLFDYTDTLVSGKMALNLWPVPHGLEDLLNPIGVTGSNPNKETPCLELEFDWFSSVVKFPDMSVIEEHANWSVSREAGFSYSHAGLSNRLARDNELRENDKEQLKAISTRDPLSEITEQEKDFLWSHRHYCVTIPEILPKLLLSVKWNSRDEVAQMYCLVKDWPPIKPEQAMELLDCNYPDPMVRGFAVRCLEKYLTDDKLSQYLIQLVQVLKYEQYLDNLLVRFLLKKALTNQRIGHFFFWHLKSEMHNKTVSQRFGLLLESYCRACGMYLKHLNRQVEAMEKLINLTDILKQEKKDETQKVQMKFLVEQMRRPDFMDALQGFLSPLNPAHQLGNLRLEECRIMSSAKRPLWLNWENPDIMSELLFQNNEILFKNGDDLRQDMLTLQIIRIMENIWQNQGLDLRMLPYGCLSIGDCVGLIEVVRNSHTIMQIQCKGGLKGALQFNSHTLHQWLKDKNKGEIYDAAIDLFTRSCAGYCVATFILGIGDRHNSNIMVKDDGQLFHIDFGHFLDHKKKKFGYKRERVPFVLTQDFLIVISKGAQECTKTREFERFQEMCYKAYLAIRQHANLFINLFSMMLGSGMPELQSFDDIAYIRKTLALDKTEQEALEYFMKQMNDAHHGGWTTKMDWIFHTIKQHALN

PIK3CD = PIK3CD (Homo sapiens (Human), UniProt O00329); conditions: 10000 nM, read-out: Percent Control
Sequence of PIK3CD (O00329 whole entry): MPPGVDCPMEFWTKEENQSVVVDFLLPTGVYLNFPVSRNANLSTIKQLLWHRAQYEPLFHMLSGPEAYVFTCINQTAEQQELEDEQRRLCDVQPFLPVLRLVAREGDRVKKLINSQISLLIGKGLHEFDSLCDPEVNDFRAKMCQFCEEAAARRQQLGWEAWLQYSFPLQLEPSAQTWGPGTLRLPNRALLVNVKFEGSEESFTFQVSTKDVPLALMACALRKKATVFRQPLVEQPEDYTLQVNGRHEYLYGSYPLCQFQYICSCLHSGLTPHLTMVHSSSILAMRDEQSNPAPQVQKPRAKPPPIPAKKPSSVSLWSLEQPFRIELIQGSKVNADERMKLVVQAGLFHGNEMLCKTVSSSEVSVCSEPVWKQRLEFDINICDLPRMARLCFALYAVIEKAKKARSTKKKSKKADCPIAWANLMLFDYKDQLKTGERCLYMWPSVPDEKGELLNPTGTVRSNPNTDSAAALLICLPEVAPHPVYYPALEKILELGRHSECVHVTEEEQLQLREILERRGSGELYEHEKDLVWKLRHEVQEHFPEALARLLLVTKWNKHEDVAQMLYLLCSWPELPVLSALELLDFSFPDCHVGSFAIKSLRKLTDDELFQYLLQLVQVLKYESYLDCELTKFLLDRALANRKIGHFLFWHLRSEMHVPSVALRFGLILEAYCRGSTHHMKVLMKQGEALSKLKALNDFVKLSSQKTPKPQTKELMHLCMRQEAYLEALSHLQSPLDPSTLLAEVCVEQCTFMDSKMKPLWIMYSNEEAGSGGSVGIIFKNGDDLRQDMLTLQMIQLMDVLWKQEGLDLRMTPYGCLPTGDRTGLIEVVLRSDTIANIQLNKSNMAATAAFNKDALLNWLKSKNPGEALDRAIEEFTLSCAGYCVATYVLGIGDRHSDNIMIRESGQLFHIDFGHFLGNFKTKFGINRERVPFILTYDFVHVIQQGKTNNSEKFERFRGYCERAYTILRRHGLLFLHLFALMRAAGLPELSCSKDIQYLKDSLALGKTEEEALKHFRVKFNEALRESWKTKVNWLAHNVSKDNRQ

PKMYT1 = PKMYT1 (Homo sapiens (Human), UniProt Q99640); conditions: PKMYT1, 10000 nM; read-out: Percent Control
SIK = SIK (Homo sapiens (Human), UniProt P57059); conditions: 10000 nM, read-out: Percent Control
SRPK3 = SRPK3 (Homo sapiens (Human), UniProt Q9UPE1); conditions: SRPK3, 10000 nM; read-out: Percent Control
SYK = SYK (Homo sapiens (Human), UniProt P43405); conditions: 10000 nM, read-out: Percent Control
TAOK1 = TAOK1 (Homo sapiens (Human), UniProt Q7L7X3); conditions: TAOK1, 10000 nM; read-out: Percent Control

Row | Structure (SMILES) | remaining binding at 10 µM [1] | remaining binding at 10 µM [2] | remaining binding at 10 µM (BMPR1A) | remaining binding at 10 µM (BMX) | remaining binding at 10 µM (CDC2L2) | remaining binding at 10 µM (CSF1R) | remaining binding at 10 µM (EGFR(T790M)) | remaining binding at 10 µM (ERBB2) | remaining binding at 10 µM (ERBB4) | remaining binding at 10 µM (ERK2) | remaining binding at 10 µM (FLT1) | remaining binding at 10 µM (GRK2) | remaining binding at 10 µM (HIPK1) | remaining binding at 10 µM (HIPK3) | remaining binding at 10 µM (IGF1R) | remaining binding at 10 µM (LZK) | remaining binding at 10 µM (MAP4K3) | remaining binding at 10 µM (MAPKAPK2) | remaining binding at 10 µM (MEK6) | remaining binding at 10 µM (MET(M1250T)) | other results
1 | COc1cc(N2CCC(N3CCN(C)CC3)CC2)ccc1Nc1ncc2c(n1)N(C)c1sc(C)nc1C(=O)N2 [Compound 3, 6-((2-methoxy-4-(4-(4-methylpiperazin-1-yl)piperidin-1-yl)phenyl)amino)-2,4-dimethyl-4,9-dihydro-10H-pyrimido[5,4-b]thiazolo[5,4-e][1,4]diazepin-10-one] | 10% | 4.3% | 81% | 76% | 87% | 36% | 100% | 98% | 57% | 60% | 87% | 100% | 83% | 100% | 86% | 100% | 100% | 100% | 100% | 82% | remaining binding at 10 µM (MST1): 89%; remaining binding at 10 µM (MYLK): 53%; remaining binding at 10 µM (MYLK4): 77%; remaining binding at 10 µM (MYO3B): 74%; remaining binding at 10 µM (p38-gamma): 67%; remaining binding at 10 µM (PFPK5(P. falciparum)): 100%; remaining binding at 10 µM (PFTK1): 90%; remaining binding at 10 µM (PHKG1): 78%; remaining binding at 10 µM (PIK3CA(I800L)): 100%; remaining binding at 10 µM (PIK3CD): 98%; remaining binding at 10 µM (PKMYT1): 90%; remaining binding at 10 µM (SIK): 69%; remaining binding at 10 µM (SRPK3): 75%; remaining binding at 10 µM (SYK): 77%; remaining binding at 10 µM (TAOK1): 100%
2 | COc1cc(N2CCC(N3CCN(C)CC3)CC2)ccc1Nc1ncc2c(n1)N(C)c1sc(C)nc1C(=O)N2C [Compound 5, 6-((2-methoxy-4-(4-(4-methylpiperazin-1-yl)piperidin-1-yl)phenyl)amino)-2,4,9-trimethyl-4,9-dihydro-10H-pyrimido[5,4-b]thiazolo[5,4-e][1,4]diazepin-10-one] | 39% | 100% | 97% | 90% | 95% | 80% | 93% | 100% | 100% | 98% | 100% | 100% | 94% | 100% | 40% | 100% | 100% | 100% | 98% | 100% | remaining binding at 10 µM (MST1): 100%; remaining binding at 10 µM (MYLK): 36%; remaining binding at 10 µM (MYLK4): 100%; remaining binding at 10 µM (MYO3B): 100%; remaining binding at 10 µM (p38-gamma): 95%; remaining binding at 10 µM (PFPK5(P. falciparum)): 97%; remaining binding at 10 µM (PFTK1): 100%; remaining binding at 10 µM (PHKG1): 84%; remaining binding at 10 µM (PIK3CA(I800L)): 70%; remaining binding at 10 µM (PIK3CD): 92%; remaining binding at 10 µM (PKMYT1): 95%; remaining binding at 10 µM (SIK): 100%; remaining binding at 10 µM (SRPK3): 100%; remaining binding at 10 µM (SYK): 89%; remaining binding at 10 µM (TAOK1): 80%
